# Test results from patent US20250195530A1, “POLQ INHIBITORS” (ASTRAZENECA AB, priority 2022, published 2025).
# Like-named read-outs stand apart in the source and are kept apart here.
# Legend:
# DLD-1 cells = assay: Inhibition of proliferation, DLD-1 BRCA2 wt control (Cell Titre Glo 3D); type: cell-based; conditions: for IC50: Homo sapiens; for POLQ PD Prolif Lumin DLD1 mean pIC50: DLD1 BRCA2 wt
# Outline: (§1)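 Luminescent Cell Titre Glo 3D readout, taken on day 12 for homologous-recombination-deficient DLD-1 BRCA2−/− and day 7 for the wild-type control, after compound refresh on day 6. Compounds spanned 10 μM to 0.51 nM in three-fold steps; IC50 defined as 50% reduction of average maximum signal.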
# DLD-1 BRCA2−/− cells = assay: Homologous recombination synthetic lethal inhibition of proliferation, DLD-1 BRCA2-/- (Cell Titre Glo 3D); type: cell-based; conditions: for IC50: Homo sapiens; for POLQ PD Prolif Lumin BRCA2 −/− mean pIC50: DLD-1 BRCA2 −/−
# Outline: as §1
# [1] = DLD-1, 168 h, DLD-1 BRCA2 wt cells, 7 days, read-out: POLQ PD Prolif Lumin DLD1 mean pIC50 (converted)
# [2] = DLD-1, 288 h, DLD-1 BRCA2−/− cells, 12 days, read-out: POLQ PD Prolif Lumin BRCA2 −/− mean pIC50 (converted)
# [3] = DLD-1, second proliferation column (c6), DLD-1 BRCA2 wt control, read-out: POLQ PD Prolif Lumin (converted)
# [4] = DLD-1, first proliferation column (c5), DLD-1 BRCA2-/-, read-out: POLQ PD Prolif Lumin (converted)
# [5] = DLD-1, proliferation, luminescence, second Prolif column (c6), taken as DLD-1 BRCA2 wt control, read-out: POLQ PD Prolif Lumin (converted)
# [6] = DLD-1, proliferation, luminescence, taken as DLD-1 BRCA2-/-, read-out: POLQ PD Prolif Lumin (converted)
# [7] = DLD-1, DLD1 BRCA2 wt, mean, read-out: POLQ PD Prolif Lumin DLD1 mean pIC50 (converted)
# [8] = DLD-1, DLD-1 BRCA2 −/−, mean, read-out: POLQ PD Prolif Lumin BRCA2 −/− mean pIC50 (converted)
smiles,measurement,setting,value
"CC1(Oc2ncnc3c2nc(-c2ccc(O[C@@H]4CCCNC4)cc2Cl)n3Cc2ccccc2)CC1 [Example D32, (R)-9-benzyl-8-(2-chloro-4-(piperidin-3-yloxy)phenyl)-6-(1-methylcyclopropoxy)-9H-purine]",IC50,DLD-1 cells; [1],6310 nM
same,IC50,DLD-1 BRCA2−/− cells; [2],126 nM
"Cc1ccnc(Cn2c(-c3ccc(CCN4CC[C@@H](O)C4)cc3Cl)nc3c(OC4(C)CC4)ncnc32)c1 [Example T511, (R)-1-(3-chloro-4-(6-(1-methylcyclopropoxy)-9-((4-methylpyridin-2-yl)methyl)-9H-purin-8-yl)phenethyl)pyrrolidin-3-ol]",IC50,DLD-1 cells; [3],> 10000 nM
same,IC50,DLD-1 BRCA2−/− cells; [4],316 nM
"CN1CCN(CCOc2cc(F)c(-c3nc4c(OC5(C)CC5)ncnc4n3Cc3ccccc3)c(F)c2)CC1 [Example H1, 9-benzyl-8-(2,6-difluoro-4-(2-(4-methylpiperazin-1-yl)ethoxy)phenyl)-6-(1-methylcyclopropoxy)-9H-purine]",IC50,DLD-1 cells; [1],3980 nM
same,IC50,DLD-1 BRCA2−/− cells; [2],200 nM
"CC1(Oc2ncnc3c2nc(-c2ccc(OCCCN4CC[C@H](O)C4)cc2Cl)n3Cc2cc(Cl)ccn2)CC1 [Example T503, (S)-1-(3-(3-chloro-4-(9-((4-chloropyridin-2-yl)methyl)-6-(1-methylcyclopropoxy)-9H-purin-8-yl)phenoxy)propyl)pyrrolidin-3-ol]",IC50,DLD-1 cells; [3],> 7940 nM
same,IC50,DLD-1 BRCA2−/− cells; [4],100 nM
"CC1(Oc2ncnc3c2nc(-c2cccc(O[C@H]4C[C@@H](C(=O)O)C4)c2Cl)n3Cc2cc(Cl)ccc2C#N)CC1 [Example U84, (1s,3s)-3-(2-chloro-3-(9-(5-chloro-2-cyanobenzyl)-6-(1-methylcyclopropoxy)-9H-purin-8-yl)phenoxy)cyclobutane-1-carboxylic acid]",POLQ PD Prolif Lumin DLD1 mean pIC50,DLD-1 cells; mean,<5.0
same,POLQ PD Prolif Lumin BRCA2 −/− mean pIC50,DLD-1 BRCA2−/− cells; mean,7.3
"CC1(Oc2ncnc3c2nc(-c2ccc(OCC(N)=O)cc2Cl)n3Cc2ccccc2)CC1 [Example D27, 2-(4-(9-benzyl-6-(1-methylcyclopropoxy)-9H-purin-8-yl)-3-chlorophenoxy)acetamide]",IC50,DLD-1 cells; [1],> 10000 nM
same,IC50,DLD-1 BRCA2−/− cells; [2],100 nM
"CC1(Oc2ncnc3c2nc(-c2ccc(CN4CCNCC4)cc2Cl)n3Cc2ccccc2)CC1 [Example N6, 9-benzyl-8-(2-chloro-4-(piperazin-1-ylmethyl)phenyl)-6-(1-methylcyclopropoxy)-9H-purine]",IC50,DLD-1 cells; [1],3980 nM
same,IC50,DLD-1 BRCA2−/− cells; [2],100 nM
"Cc1cc(OCCN2CCN(C)CC2)cc(C)c1-c1nc2c(OC3(C)CC3)ncnc2n1Cc1ccccc1 [Example H4, 9-benzyl-8-(2,6-dimethyl-4-(2-(4-methylpiperazin-1-yl)ethoxy)phenyl)-6-(1-methylcyclopropoxy)-9H-purine]",IC50,DLD-1 cells; [1],> 10000 nM
same,IC50,DLD-1 BRCA2−/− cells; [2],251 nM
"C[C@@H](CCOc1ccc(-c2nc3c(OC4(C)CC4)ncnc3n2Cc2ccccc2C#N)c(Cl)c1)C(=O)O [Example T403, (S)-4-(3-chloro-4-(9-(2-cyanobenzyl)-6-(1-methylcyclopropoxy)-9H-purin-8-yl)phenoxy)-2-methylbutanoic acid]",IC50,DLD-1 cells; [5],> 10000 nM
same,IC50,DLD-1 BRCA2−/− cells; [6],398 nM
"Cc1ccnc(Cn2c(-c3ccc(O[C@H]4CCC(=O)NC4)cc3Cl)nc3c(OC4(C)CC4)ncnc32)c1 [Example 41, (S)-5-(3-Chloro-4-(6-(1-methylcyclopropoxy)-9-((4-methylpyridin-2-yl)methyl)-9H-purin-8-yl)phenoxy)piperidin-2-one]",IC50,"DLD-1 cells; DLD-1, 168 h, DLD-1 (BRCA2 wt control), 7 days, Cell Titre Glo 3D, read-out: POLQ PD Prolif Lumin DLD1 Mean pIC50 (converted)",> 10000 nM
same,IC50,"DLD-1 BRCA2−/− cells; DLD-1, 288 h, DLD-1 BRCA2−/−, 12 days, Cell Titre Glo 3D, read-out: POLQ PD Prolif Lumin BRCA2 −/− Mean pIC50 (converted)",794 nM
"CC(CCOc1ccc(-c2nc3c(OC4(C)CC4)ncnc3n2Cc2cc(C(F)(F)F)ccc2F)c(Cl)c1)C(=O)O (racemic) [Example T395, 4-(3-chloro-4-(9-(2-fluoro-5-(trifluoromethyl)benzyl)-6-(1-methylcyclopropoxy)-9H-purin-8-yl)phenoxy)-2-methylbutanoic acid]",IC50,DLD-1 cells; [5],> 10000 nM
same,IC50,DLD-1 BRCA2−/− cells; [6],100 nM
"CNCCOc1ccc(-c2nc3c(OC4(C)CC4)ncnc3n2Cc2cc(Cl)ccn2)c(Cl)c1 [Example T67, 2-(3-chloro-4-(9-((4-chloropyridin-2-yl)methyl)-6-(1-methylcyclopropoxy)-9H-purin-8-yl)phenoxy)-N-methylethan-1-amine]",IC50,"DLD-1 cells; DLD-1, DLD1 BRCA2 wt cells, mean, read-out: POLQ PD Prolif Lumin DLD1 mean PIC50 (converted)",> 10000 nM
same,IC50,"DLD-1 BRCA2−/− cells; DLD-1, DLD-1 BRCA2 −/− cells, mean, read-out: POLQ PD Prolif Lumin BRCA2 −/− mean pIC50 (converted)",126 nM
"CNC(=O)COc1ccc(-c2nc3c(OC4(C)CC4)ncnc3n2Cc2ccccc2)c(Cl)c1 [Example D21, 2-(4-(9-benzyl-6-(1-methylcyclopropoxy)-9H-purin-8-yl)-3-chlorophenoxy)-N-methylacetamide]",IC50,DLD-1 cells; [1],> 10000 nM
same,IC50,DLD-1 BRCA2−/− cells; [2],126 nM
"Cc1ccnc(Cn2c(-c3ccc(C(=O)NCC(C)(C)O)cc3Cl)nc3c(OC4(C)CC4)ncnc32)c1 [Example T363, 3-chloro-N-(2-hydroxy-2-methylpropyl)-4-(6-(1-methylcyclopropoxy)-9-((4-methylpyridin-2-yl)methyl)-9H-purin-8-yl)benzamide]",IC50,"DLD-1 cells; DLD-1, second proliferation column (c6), taken as DLD-1 BRCA2 wt, read-out: POLQ PD Prolif Lumin (converted)",> 10000 nM
same,IC50,"DLD-1 BRCA2−/− cells; DLD-1, first proliferation column (c5), taken as DLD-1 BRCA2-/-, read-out: POLQ PD Prolif Lumin (converted)",794 nM
"CC(CCOc1ccc(-c2nc3c(OC4(C)CC4)ncnc3n2Cc2c(F)cccc2C#N)c(Cl)c1)C(=O)O (racemic) [Example U13, 4-(3-chloro-4-(9-(2-cyano-6-fluorobenzyl)-6-(1-methylcyclopropoxy)-9H-purin-8-yl)phenoxy)-2-methylbutanoic acid]",IC50,DLD-1 cells; [7],> 10000 nM
same,IC50,DLD-1 BRCA2−/− cells; [8],3160 nM
"Cc1ccnc(Cn2c(-c3ccc(OCCN4CC5(CCN5)C4)cc3Cl)nc3c(OC4(C)CC4)ncnc32)c1 [Example T587, 8-(4-(2-(1,6-diazaspiro[3.3]heptan-6-yl)ethoxy)-2-chlorophenyl)-6-(1-methylcyclopropoxy)-9-((4-methylpyridin-2-yl)methyl)-9H-purine]",IC50,"DLD-1 cells; DLD-1, second proliferation column, DLD-1 BRCA2 wt control, read-out: POLQ PD Prolif Lumin (converted)",> 10000 nM
same,IC50,"DLD-1 BRCA2−/− cells; DLD-1, first proliferation column, DLD-1 BRCA2-/-, read-out: POLQ PD Prolif Lumin (converted)",1000 nM
"COc1ccc(F)cc1Cn1c(-c2ccc(OCC[C@H](C)C(=O)O)cc2Cl)nc2c(OC3(C)CC3)ncnc21 [Example U68, (S)-4-(3-chloro-4-(9-(5-fluoro-2-methoxybenzyl)-6-(1-methylcyclopropoxy)-9H-purin-8-yl)phenoxy)-2-methylbutanoic acid]",IC50,DLD-1 cells; [7],> 10000 nM
same,IC50,DLD-1 BRCA2−/− cells; [8],39.8 nM
"Cc1ccnc(Cn2c(-c3ccc(C(=O)N(C)C)cc3Cl)nc3c(OC4(C)CC4)ncnc32)c1 [Example T112, 3-chloro-N,N-dimethyl-4-(6-(1-methylcyclopropoxy)-9-((4-methylpyridin-2-yl)methyl)-9H-purin-8-yl)benzamide]",IC50,DLD-1 cells; [3],> 10000 nM
same,IC50,DLD-1 BRCA2−/− cells; [4],1580 nM
"CC(C)Oc1ccc2c(c1)nc(-c1ccc(OC3CCCN(C)CC3)cc1Cl)n2Cc1ccccc1 (single isomer, unassigned) [Example A10, 1-benzyl-2-(2-chloro-4-((1-methylazepan-4-yl)oxy)phenyl)-5-isopropoxy-1H-benzo[d]imidazole]",IC50,DLD-1 cells; [1],2510 nM
same,IC50,DLD-1 BRCA2−/− cells; [2],794 nM
"Cc1ccnc(Cn2c(-c3ccc(NC(=O)OCCO)cc3Cl)nc3c(OC4(C)CC4)ncnc32)c1 [Example T123, 2-hydroxyethyl (3-chloro-4-(6-(1-methylcyclopropoxy)-9-((4-methylpyridin-2-yl)methyl)-9H-purin-8-yl)phenyl)carbamate]",IC50,DLD-1 cells; [3],> 10000 nM
same,IC50,DLD-1 BRCA2−/− cells; [4],200 nM
"CC1(Oc2ncnc3c2nc(-c2ccc(OCCN4CC5(C4)CS(=O)(=O)C5)cc2Cl)n3Cc2ccccc2)CC1 [Example H20, 6-(2-(4-(9-benzyl-6-(1-methylcyclopropoxy)-9H-purin-8-yl)-3-chlorophenoxy)ethyl)-2-thia-6-azaspiro[3.3]heptane 2,2-dioxide]",IC50,DLD-1 cells; [1],3980 nM
same,IC50,DLD-1 BRCA2−/− cells; [2],100 nM
"COc1ccc(Cl)cc1Cn1c(-c2ccc(O[C@H]3CC[C@@H](C(=O)O)CC3)cc2Cl)nc2c(OC3(C)CC3)ncnc21 [Example U40, (1s,4s)-4-(3-chloro-4-(9-(5-chloro-2-methoxybenzyl)-6-(1-methylcyclopropoxy)-9H-purin-8-yl)phenoxy)cyclohexane-1-carboxylic acid]",POLQ PD Prolif Lumin DLD1 mean pIC50,DLD-1 cells; mean,<5.1
same,POLQ PD Prolif Lumin BRCA2 −/− mean pIC50,DLD-1 BRCA2−/− cells; mean,7
"CC(CCOc1ccc(-c2nc3c(OC4(C#N)CC4)ncnc3n2Cc2cccc(Cl)c2)c(Cl)c1)C(=O)O (racemic) [Example T252, 4-(3-chloro-4-(9-(3-chlorobenzyl)-6-(1-cyanocyclopropoxy)-9H-purin-8-yl)phenoxy)-2-methylbutanoic acid]",IC50,"DLD-1 cells; DLD-1, DLD-1 BRCA2 wt control proliferation, column head only partly shown, read-out: POLQ PD Prolif Lumin (converted)",> 10000 nM
same,IC50,"DLD-1 BRCA2−/− cells; DLD-1, DLD-1 BRCA2-/- proliferation, column head only partly shown, read-out: POLQ PD Prolif Lumin (converted)",398 nM
